Source: US20250243220A1, “ATR INHIBITORS” (APREA THERAPEUTICS, INC., priority 2022, published 2025)

Columns and labels:
Assay type in all cases: cell-based
OVCAR-8 = test: IC50 assay by Western blot (APH-treated cells), OVCAR-8; conditions: OVCAR-8 cells; for IC50: Homo sapiens
Description: (§1) E. Treatment of Cells for IC50 Assay by Western Blot
(§2) The compound is stored as a 1 mM stock solution prepared in accordance with the Receipt of Compound SOP. The stock solution is diluted in cell media in two separate 1:10 dilution series.
(§3) 1. Arrange twelve 15-mL centrifuge tubes in a rack in two series and label them in accordance with Dilutions Series 1 and Dilution Series 2 shown in Table 1 and Table 2, respectively.
(§4) 2. Place 2.5 mL of prewarmed cell media in each of the […]. Place 2.25 mL of prewarmed cell media in the remaining tubes.
(§5) 3. Add 7.5 μL of 1 mM compound stock solution in the 3 μM tube. Mix well.
(§6) 4. Add 2.5 μL of 1 mM compound stock solution in the 1 μM tube. Mix well.
(§7) 5. For each series (separately), remove 250 μL from the leftmost tube and transfer to the next tube to the right. Repeat for each tube until the series is complete.
(§8) 6. Set aside the 1 μM tube, the 3 μM tube, and the 300 nM tube for discard.
(§9) 7. The cells to be treated will be in 6-well plates labeled by cell line. Remove the cells from the incubator and label the wells with the dosages to be administered.
(§10) 8. Arrange the dilution tubes in the rack in a manner that reflects the 6-well plate arrangement so as to avoid confusion when administering the dosage solutions to the appropriate wells.
(§11) 9. Aspirate the three wells in the top row of the first plate (labeled NT, APH+, and APH+) and replace with 2 mL fresh media (without drug compound).
(§12) 10. Aspirate the three wells in the bottom row of the first plate and replace each well with 2 mL of solution from the appropriate tube.
(§13) 11. Repeat step 10 for the next row of wells (top row second plate). and then for the final row of wells (bottom row second plate).
(§14) 12. Place both plates into the incubator for 30 minutes.
(§15) 13. After 30 minutes have elapsed, remove the plates from the incubator.
(§16) 14. Acquire stock solution of APH (5 mM) and add 2 μL of the APH stock solution to the center of each well except the well labeled NT.
(§17) 15. Swirl the plates carefully and gently to diffuse the APH throughout each well.
(§18) 16. Place the plates back in the incubator for 4 hours, at which point the cells will be harvested for analysis.
(§19) 17. Twenty minutes before harvesting (or 3 hours and 40 minutes after administration of APH), turn on a heat block suitable to heat Eppendorf tubes. Set the temperature to 95° C.
(§20) 18. Set up a number of Eppendorf tubes equal to the number of wells treated (i.e., twelve per two-plate drug administration), and label each tube with cell line, compound administered, dosage level, and date. Leave the tubes open.
(§21) 19. Add 200 mL DI water to a beaker.
(§22) 20. After 4 hours, remove treated plates from incubator.
(§23) 21. Aspirate media from all wells.
(§24) 22. Wash each well with 2 mL 1×PBS and aspirate.
(§25) 23. Sterilize vacuum line with 70% ethanol by spraying some into the nozzle while the vacuum is engaged. Shut off vacuum.
(§26) 24. Add Laemmli buffer to each well. For HCT116 Bcl/xl, OVCAR-3, and 22RV1 cells, add 300 μL per well; for OVCAR-8 and SKOV-3 cells, add 250 μL per well.
(§27) 25. Scrape the first well thoroughly. Place the scraper into the DI water between uses.
(§28) 26. Transfer the lysed cell debris mixture to the first tube carefully. The mixture will be viscous. Use a 1000-μL pipettor. Close the tube.
(§29) 27. Repeat steps 25 and 26 for each well.
(§30) 28. When all wells have been harvested, place all the tubes into the heat block. Place a weighted, heat-resistant object on top of the tubes to keep them closed.
(§31) 29. After 5 minutes, remove the tubes from the heat block and turn it off. Vortex each tube for 10 seconds. Be cautious of tubes popping open.
(§32) 30. Allow the tubes to come to room temperature and proceed to further analysis or store frozen at −20° C.

22RV1 = test: IC50 assay by Western blot (APH-treated cells), 22RV1; conditions: 22RV1 cells; for IC50: Homo sapiens
Description: as §1, §2, §3, §4, §5, §6, §7, §8, §9, §10, §11, §12, §13, §14, §15, §16, §17, §18, §19, §20, §21, §22, §23, §24, §25, §26, §27, §28, §29, §30, §31, §32

MEC (+APH) = test: MEC (+APH)
SKOV-3 = test: IC50 assay by Western blot (APH-treated cells), SKOV-3; conditions: SKOV-3 cells; for IC50: Homo sapiens, SK-OV-3
Description: as §1, §2, §3, §4, §5, §6, §7, §8, §9, §10, §11, §12, §13, §14, §15, §16, §17, §18, §19, §20, §21, §22, §23, §24, §25, §26, §27, §28, §29, §30, §31, §32

[1] = tested on: HCT Bcl/xl, OVCAR-3, OVCAR-8, SKOV-3, 22RV1 cell lines; test: Ave. IC50 across cell lines; conditions: average across cell lines
OVCAR-3 = test: IC50 assay by Western blot (APH-treated cells), OVCAR-3; conditions: OVCAR-3 cells; for IC50: Homo sapiens
Description: as §1, §2, §3, §4, §5, §6, §7, §8, §9, §10, §11, §12, §13, §14, §15, §16, §17, §18, §19, §20, §21, §22, §23, §24, §25, §26, §27, §28, §29, §30, §31, §32

HCT116 Bcl/xl = test: IC50 assay by Western blot (APH-treated cells), HCT116 Bcl/xl; conditions: for IC50: Homo sapiens, HCT-116
Description: as §1, §2, §3, §4, §5, §6, §7, §8, §9, §10, §11, §12, §13, §14, §15, §16, §17, §18, §19, §20, §21, §22, §23, §24, §25, §26, §27, §28, §29, §30, §31, §32

Compound | IC50 (OVCAR-8) | IC50 (22RV1) | IC50 (SKOV-3) | IC50 [1] | IC50 (OVCAR-3) | IC50 (HCT116 Bcl/xl) | PALD (Percent Activity at Lowest Dose tested) OVCAR-8 (OVCAR-8) | PALD (Percent Activity at Lowest Dose tested) 22RV1 (22RV1) | minimal effective concentration (MEC (+APH)) | PALD (Percent Activity at Lowest Dose tested) SKOV-3 (SKOV-3) | PALD (Percent Activity at Lowest Dose tested) OVCAR-3 (OVCAR-3) | PALD (Percent Activity at Lowest Dose tested) HCT Bcl/xl (HCT116 Bcl/xl)
CNCc1cccc2c1OCCCCCCC(C)(O)CC1(CC1)S(=O)(=O)c1ccc(cc1)-c1cnc(N)c(n1)C(=O)N2 (racemic) [Compound B, 5-amino-22-hydroxy-22-methyl-13-(methylaminomethyl)-25,25-dioxo-spiro[15-oxa-25λ^6-thia-4,8,31-triazatetracyclo[24.2.2.1^2,6.0^9,14]hentriaconta-1(28),2,4,6(31),9(14),10,12,26,29-nonaene-24,1′-cyclopropane]-7-one] | 4.47 nM | 2.99 nM | 2.62 nM | 3.37 nM | 2.15 nM | 4.63 nM | (94%) | (141%) | 4e-05 µM | (106%) | (121%) | (115%)
C[C@@H]1COCCN1c1cc(C2([S@](C)(=N)=O)CC2)nc(-c2cc[nH]c3nccc2-3)n1 [AZD 6738, reference compound] | 86.6 nM | 275 nM | 107 nM | 123 nM | 91.8 nM | 57.1 nM | (116%) | (165%) | 0.0003 µM | (105%) | (190%) | –
CN(C)Cc1cccc2c1OCCCCCCC(C)(O)CC1(CC1)S(=O)(=O)c1ccc(cc1)-c1cnc(N)c(n1)C(=O)N2 (centres unmarked) [Compound F, 5-amino-13-[(dimethylamino)methyl]-22-hydroxy-22-methyl-25,25-dioxo-spiro[15-oxa-25λ^6-thia-4,8,31-triazatetracyclo[24.2.2.1^2,6.0^9,14]hentriaconta-1(28),2,4,6(31),9(14),10,12,26,29-nonaene-24,1′-cyclopropane]-7-one] | 31.5 nM | 10.8 nM | – | – | 8.23 nM | 14.1 nM | (81%) | (96%) | 0.000156 µM | – | (86%) | (104%)
CNCc1cccc2c1OCCCCCC[C@](C)(O)CC(C)(C)S(=O)(=O)c1ccc(cc1)-c1cnc(N)c(n1)C(=O)N2 (single isomer, unassigned) [Compound A-1] | 2.16 nM | 4.69 nM | 2.85 nM | 3.29 nM | 4.09 nM | 2.68 nM | (91%) | (121%) | 2e-05 µM | (81%) | (116%) | (110%)
CC1(C)C[C@](C)(O)CCCCCCOc2c(CN)cccc2NC(=O)c2nc(cnc2N)-c2ccc(cc2)S1(=O)=O (single isomer, unassigned) [Compound C-2] | 2.47 nM | 2.03 nM | 3.2 nM | 4.92 nM | 11.5 nM | 5.41 nM | (100%) | (92%) | 1e-05 µM | (95%) | (95%) | (71%)
CN(C)Cc1cccc2c1OCCCCCCC(O)CC(C)(C)S(=O)(=O)c1ccc(cc1)-c1cnc(N)c(n1)C(=O)N2 (centres unmarked) [Compound G, 5-amino-13-[(dimethylamino)methyl]-22-hydroxy-24,24-dimethyl-25,25-dioxo-15-oxa-25λ^6-thia-4,8,31-triazatetracyclo[24.2.2.1^2,6.0^9,14]hentriaconta-1(28),2(31),3,5,9(14),10,12,26,29-nonaen-7-one] | – | 5.09 nM | 2.64 nM | – | 4.97 nM | 12.5 nM | – | (104%) | 8e-05 µM | (97%) | (83%) | (109%)
CN(C)Cc1cccc2c1OCCCCCCC(C)(O)CC(C)(C)S(=O)(=O)c1ccc(cc1)-c1cnc(N)c(n1)C(=O)N2 (centres unmarked) [Compound E, 5-amino-13-[(dimethylamino)methyl]-22-hydroxy-22,24,24-trimethyl-25,25-dioxo-15-oxa-25λ^6-thia-4,8,31-triazatetracyclo[24.2.2.1^2,6.0^9,14]hentriaconta-1(28),2,4,6(31),9(14),10,12,26,29-nonaen-7-one] | 6.47 nM | 3.28 nM | – | – | – | 6.5 nM | (139%) | (72%) | 8e-05 µM | – | – | (91%)
CC1(C)C[C@@](C)(O)CCCCCCOc2c(CN)cccc2NC(=O)c2nc(cnc2N)-c2ccc(cc2)S1(=O)=O (single isomer, unassigned) [Compound C-1] | 3.63 nM | 3.5 nM | – | 2.7 nM | 1.02 nM | 4.53 nM | (83%) | (107%) | 1e-05 µM | – | (115%) | (72%)

Continued, in another order:

IC50 (OVCAR-8) | IC50 (22RV1) | IC50 (SKOV-3) | IC50 [1] | IC50 (OVCAR-3) | IC50 (HCT116 Bcl/xl) | Compound | PALD (Percent Activity at Lowest Dose tested) OVCAR-8 (OVCAR-8) | PALD (Percent Activity at Lowest Dose tested) 22RV1 (22RV1) | minimal effective concentration (MEC (+APH)) | PALD (Percent Activity at Lowest Dose tested) SKOV-3 (SKOV-3) | PALD (Percent Activity at Lowest Dose tested) OVCAR-3 (OVCAR-3) | PALD (Percent Activity at Lowest Dose tested) HCT Bcl/xl (HCT116 Bcl/xl)
4.97 nM | 7.02 nM | – | – | – | 7.77 nM | CNCc1cccc2c1OCCCCCC[C@H](O)CC(C)(C)S(=O)(=O)c1ccc(cc1)-c1cnc(N)c(n1)C(=O)N2 (single isomer, unassigned) [Compound G-1] | (85%) | (111%) | 4e-05 µM | – | – | (115%)
– | – | – | – | – | 6.43 nM | CC1(C)C[C@H](O)CCCCCCOc2c(CN)cccc2NC(=O)c2nc(cnc2N)-c2ccc(cc2)S1(=O)=O (single isomer, unassigned) [Compound H-2] | – | – | 2e-05 µM | – | – | (89%)
– | 7.84 nM | – | – | – | 4.46 nM | CC1(C)C[C@@H](O)CCCCCCOc2c(CN)cccc2NC(=O)c2nc(cnc2N)-c2ccc(cc2)S1(=O)=O (single isomer, unassigned) [Compound H-1] | – | (71%) | 4e-05 µM | – | – | (89%)
– | 8.57 nM | 4.94 nM | – | – | 7.9 nM | CNCc1cccc2c1OCCCCCC[C@@H](O)CC(C)(C)S(=O)(=O)c1ccc(cc1)-c1cnc(N)c(n1)C(=O)N2 (single isomer, unassigned) [Compound G-2] | – | (86%) | 4e-05 µM | (92%) | – | (83%)
